Patent US20020115613A1, “Treatment of prostate cancer” (priority 2001, published 2002)
* marks the point of attachment. Cbz = O=C(OCc1ccccc1)*; CH2F = FC*

Legend:
prostate cancer cells = conditions: cited from earlier work
PC3AR cells = experiment: Induction of apoptosis / cell survival (FIG. 1E, 6A); type: cell-based; conditions: 5 μM hydroxyflutamide for 5 days, then 400 ng/ml TRAIL, FIG. 1E
Protocol: PC3AR cells are a clonal cell line derived by stable transfection of PC3 with a full-length human AR cDNA (Dai, J. L., et al., Steroids, 61, 531-539, 1996). PC3Neo cells were stably transfected with neomycin vector alone. Cells were grown in RPMI 1640 with 5% FBS (Hyclone, Logan, Utah), 100 units/ml penicillin, 100 μg/ml streptomycin, 0.25 μg/ml fungizone and G418 (350 μg/ml) to select for neomycin-resistant cells. In experiments using antiandrogens, cells were maintained in 5% DCC stripped serum for at least 48 hr before treatment with hydroxyflutamide (Sigma Chemical Co., St. Louis, Mo.). The medium and all the drugs were replaced every two days. Cells were treated with 200 ng/ml, 400 ng/ml or 600 ng/ml of TRAIL (Biomol Research Laboratories, Inc, Plymouth Meeting, Pa.) for 2, 4, 6, 8, 16 and 20 hr. Cells were treated with 5 μM hydroxyflutamide for 5 days before the commencement of treatment with 400 ng/ml TRAIL.
Two methods were used to measure induction of apoptosis by drug treatment: the MTT assay and the Apoptosense assay. The MTT assay measures mitochondrial enzyme activity and is indicative of the number of surviving cells. The Apoptosense assay is an ELISA, which utilizes M30 antibody to recognize the C-terminal domain (amino acids 387-396) of cytokeratin 18 that is exposed in apoptotic cells after cleavage by caspases.
Cells were seeded in 96-well plates (6000 cells/well) and treatment was started 24 hr after seeding the cells. After completion of the treatment, cells were incubated at 37° C. with the MTT reagent for 3 hr and processed according to manufacturers instructions (Promega Corporation, Madison, Wis.). Color development was measured at 490 nm on a Spectra MAX 340 microplate reader (Molecular Devices, Menlo Park, Calif.).

LNCaP C4-2 cells = experiment: Western blotting of death receptors, caspases, Bid, cytochrome c, Akt; type: cell-based; conditions: LNCaP C4-2 treated with TRAIL and/or Mifepristone; inhibitor pre-treatment one hr; FIG. 7
Protocol: (§1) LNCaP were obtained from American Type Culture Collection (Rockville, Md.) and LNCaP C4-2 cells were purchased from Urocor Inc., Oklahoma City, Okla. Cells were grown in RPMI 1640 medium supplemented with 10% (LNCaP) or 5% (LNCaP C4-2) fetal bovine serum (Hyclone, Logan, Utah) and grown in the presence of 5% CO2 at 37° C. Cells were treated with 10 μM Mifepristone (Sigma, St. Louis, Mo.) for three days or with increasing concentrations (from 200 ng/ml to 600 ng/ml) of TRAIL (Biomol Research Laboratories, Inc., Plymouth Meetings, Pa.) for varying time intervals 2, 4, 6, 8, 16, 20 and 24 hours (hr). Thus, for treatment with Mifepristone, cells were treated with Mifepristone for three days and then some cells treated (without washing) with TRAIL for indicated periods. Upon completion of the experiment, cells were harvested, and total proteins, cytosol or mitochondrial fractions were isolated as described below. At least three experiments were conducted with a minimum of four plates per treatment per experiment.
(§2) For experiments using inhibitors, the cells were pre-treated with increasing concentrations of the inhibitors (10 μM to 100 μM) for one hr and then with TRAIL. Caspase-8-specific (Z-IETD-FMK) and caspase-9-specific ([…]) inhibitors were purchased from Enzyme Systems Products, Livermore, Calif. The inhibitors were dissolved in DMSO; to limit cellular toxicity, care was taken not to exceed 0.2% DMSO in the culture medium. Appropriate controls included vehicle treated cells with or without the inhibitors.
(§3) Cells were harvested by trypsinization, washed in 1×PBS and cell pellets resuspended in lysis buffer (100 mM Tris-HCl pH 8.0, 0.1% Triton X 100 and protease inhibitor cocktail from Roche Diagnostic Corporation, Indianapolis, Ind.). Cells were incubated over ice for 30 min and centrifuged at 10,000 g at 4° C. for 10 min. The supernatant was collected and the protein concentration estimated using Bio-Rad protein reagent (Bio-Rad Laboratories, Hercules, Calif.).
(§4) Proteins (50 μg, unless stated otherwise) were separated on NuPAGE 10% Bis-Tris gels (Novex pre-cast mini gels, InVitrogen, Carlsbad, Calif.) at 100 volts for 1 hour in the presence of 1×MES-SDS running buffer (InVitrogen, Carlsbad, Calif.). Separated proteins were transferred to (PVDF) membranes (Bio-Rad Laboratories, Hercules, Calif.) at 42 volts for 2.5 hr using a Novex XCell II blotting apparatus in MES transfer buffer in the presence of NuPAGE antioxidant. Transfer of the proteins to the polyvinylidene difluoride (PVDF) membrane was confirmed by staining with Ponceau S (Sigma, St. Louis, Mo.). The blots were blocked in 5% non-fat dry milk in TBS, washed twice for 10 min each with TBS containing 0.1% Tween-20 and incubated for 2 hr at RT with primary antibody diluted in TBS containing 0.5% milk.
(§5) The following antibodies were used in the immunoblots: DR4, DR5 and cytochrome c (Imgenex, San Diego, Calif.), BID (BioSource International, Camarillo, Calif.), caspases-8, -9, and Akt (Cell Signaling Technology, Beverely, Mass.), caspase-3 (BD Pharmingen, San Diego, Calif.) Iκβ and XIAP (Cell Signaling Technology, Beverly, Mass.), cFLIP (StressGen Biotechnology Corp, Victoria, Canada), actin (Sigma Chemical Co., St. Louis, Mo.) and Cox II (Molecular Probes, Eugene, Oreg.). Immunoreactive bands were visualized using ECL detection system (Amersham, Pharmacia Biotech, Arlington Heights, Ill.) and signals were developed after exposure to X-ray film (X-Omat films, Eastman Kodak Company, Rochester, N.Y.).
(§6) For separation of mitochondrial and cytosolic fractions, cells were trypsinized, centrifuged at 600 g for 10 min at 4° C., washed twice in ice-cold PBS and re-suspended in buffer A (20 mM HEPES-KOH, pH 7.2, 10 mM KCl, 1.5 mM MgC12, 1 mM sodium-EDTA, 1 mM sodium-EGTA, 250 mM sucrose and protease inhibitor cocktail). Cells were homogenized on ice with a glass Dounce homogenizer (30 strokes) and were centrifuged at 750 g for 5 min at 4° C. […]

LNCaP cells = experiment: as above; type: cell-based; conditions: LNCaP treated with TRAIL and/or Mifepristone; inhibitor pre-treatment one hr; FIG. 7
Protocol: as §1, §2, §3, §4, §5, §6

Molecule	ability to induce apoptosis in prostate cancer cells (Sridhar et al., 2001) (prostate cancer cells)	effect of anti-androgen pre-treatment on response to TRAIL (PC3AR cells)	caspase-8 activation in presence of caspase inhibitor (LNCaP C4-2 cells)	tBid in presence of caspase inhibitor (LNCaP C4-2 cells)	caspase-8 activation in presence of caspase inhibitor (LNCaP cells)	tBid in presence of caspase inhibitor (LNCaP cells)	caspase-3 activation in presence of caspase inhibitor (LNCaP C4-2 cells)	caspase-7 activation in presence of caspase inhibitor (LNCaP C4-2 cells)	caspase-3 activation in presence of caspase inhibitor (LNCaP cells)	caspase-7 activation in presence of caspase inhibitor (LNCaP cells)
CC/C(=C(\c1ccccc1)c1ccc(OCCN(C)C)cc1)c1ccccc1 [Tamoxifen]	marginal ability to induce apoptosis	–	–	–	–	–	–	–	–	–
CC(C)(O)C(=O)Nc1ccc([N+](=O)[O-])c(C(F)(F)F)c1 [hydroxyflutamide, reference compound]	–	did not alter their response to TRAIL	–	–	–	–	–	–	–	–
Cbz-IETD-CH2F	–	–	blocked activation of caspase-8	tBid was not present	blocked activation of caspase-8	tBid was not present	–	–	–	–
Cbz-LEHD-CH2F	–	–	did not affect caspase-8 activity	significantly reduced the levels of tBid	did not affect caspase-8 activity	significantly reduced the levels of tBid	reduced caspase-3 activity	blocked activation of caspase-7	reduced caspase-3 activity	blocked activation of caspase-7
